In PMC7305291, “Cryo-EM snapshots of mycobacterial arabinosyltransferase complex EmbB2-AcpM2” (Protein & Cell, 2020):
Substitutions are numbered along the chain they refer to.

Key:
[1] = target: T1, EmbB2-AcpM2 complex (Msm EmbB) (Mycolicibacterium smegmatis, UniProt A0R614); test: cryo-EM structure of the complex, […] Å; mass spectrometry of co-purified lipid; format: binding; details: endogenous donor substrate, bound in one protomer of the asymmetric active state
T1 construct: gene MSMEG_6389; full-length EmbB, C-terminal 10xHis tag, pMV261 vector, homologous overexpression in M. smegmatis, detergent purified then amphipol exchanged; homodimer with endogenous co-purified AcpM on each protomer; with Meromycolate extension acyl carrier protein
T1 sequence (A0R614 1-1082): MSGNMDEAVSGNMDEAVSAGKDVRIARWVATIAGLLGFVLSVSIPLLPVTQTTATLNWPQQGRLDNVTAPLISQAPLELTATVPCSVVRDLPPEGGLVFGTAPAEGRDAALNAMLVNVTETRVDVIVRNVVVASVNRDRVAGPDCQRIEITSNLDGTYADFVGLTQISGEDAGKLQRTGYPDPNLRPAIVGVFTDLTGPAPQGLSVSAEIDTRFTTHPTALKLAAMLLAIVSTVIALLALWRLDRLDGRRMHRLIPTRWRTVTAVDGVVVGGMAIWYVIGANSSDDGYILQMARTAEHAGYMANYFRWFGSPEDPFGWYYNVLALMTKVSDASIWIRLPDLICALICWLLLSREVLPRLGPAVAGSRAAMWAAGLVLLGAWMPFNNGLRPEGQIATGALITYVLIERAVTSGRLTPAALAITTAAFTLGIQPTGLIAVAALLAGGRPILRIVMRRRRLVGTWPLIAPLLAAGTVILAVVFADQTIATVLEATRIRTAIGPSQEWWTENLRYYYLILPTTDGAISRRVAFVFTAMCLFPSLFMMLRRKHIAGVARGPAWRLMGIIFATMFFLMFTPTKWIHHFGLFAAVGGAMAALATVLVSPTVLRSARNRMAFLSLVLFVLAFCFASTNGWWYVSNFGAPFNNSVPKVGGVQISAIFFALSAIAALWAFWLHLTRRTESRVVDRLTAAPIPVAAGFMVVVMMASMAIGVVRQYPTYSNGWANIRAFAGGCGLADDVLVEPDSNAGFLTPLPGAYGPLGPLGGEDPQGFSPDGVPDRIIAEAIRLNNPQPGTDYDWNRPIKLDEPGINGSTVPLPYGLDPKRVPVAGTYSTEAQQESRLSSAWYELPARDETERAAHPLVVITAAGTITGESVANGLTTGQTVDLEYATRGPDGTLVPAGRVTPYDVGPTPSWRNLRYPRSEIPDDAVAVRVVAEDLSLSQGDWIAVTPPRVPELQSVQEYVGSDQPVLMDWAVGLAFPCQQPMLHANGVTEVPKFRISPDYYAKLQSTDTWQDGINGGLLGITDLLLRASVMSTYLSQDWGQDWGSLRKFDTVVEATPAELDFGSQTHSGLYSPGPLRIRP
T1 sequence (A0R0B3 1-99 partner): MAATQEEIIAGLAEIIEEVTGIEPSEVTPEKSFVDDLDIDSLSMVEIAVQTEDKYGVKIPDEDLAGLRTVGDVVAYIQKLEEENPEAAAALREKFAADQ

[2] = target: T1, EmbB2-AcpM2 complex (Msm EmbB); test: microscale thermophoresis (MST); format: binding
[3] = target: the molecule itself; test: cryo-EM structure; detergent purified, amphipol exchanged EmbB with co-purified endogenous AcpM; single-particle analysis; two 3D classes refined: symmetric resting state (3.6 A) and asymmetric DPA-bound active state (3.5 A)

CC(C)=CCC/C(C)=C/CC/C(C)=C\CC/C(C)=C\CC/C(C)=C\CC/C(C)=C\CC/C(C)=C\CC/C(C)=C\CC/C(C)=C\CC/C(C)=C\COP(=O)(O)O[C@@H]1O[C@H](CO)[C@@H](O)[C@@H]1O [decaprenyl-phosphate-arabinose]
cryo-EM structure of the complex, 3.5 Å; mass spectrometry of co-purified lipid [1]: The whole of the DPA fits into this part of the map

CC[C@@H](CO)NCCN[C@@H](CC)CO [ethambutol]
Kd [2]: 1580 nM

B1: Mycobacterium smegmatis arabinosyltransferase EmbB (MSMEG_6389) (enzyme, UniProt Q50395 1-1082, looked up)
chain: T1 sequence (A0R614 1-1082) with M453I, V459D, N508K, I579T
notes: arabinosyltransferase EmbB of Mycobacterium smegmatis, locus MSMEG_6389; 69.6% identical to Mtb EmbB (Rv_3795); Seen as a homodimer by cryo-EM, with one AcpM on each protomer (EmbB2-AcpM2); also called Msm EmbB; EmbB protomer
stoichiometry N [3]: 2
